In brackets after ≈: the same amount, converted by molar mass.
Legend:
[1] = Aqueous solubility of paclitaxel (intrinsic, clinical vehicle, hydrotropic agents)
Source text: The molecular structures of these hydrotropic agents are shown below.

HT-29 = test: Antitumor cytotoxicity (ED50), HT-29; type: cell-based; details: HT-29 tumor cell line
Method: (§1) The antitumor cytotoxicities, as measured by ED50, of polymeric micelles on various cell lines were measured as shown in Table 7. […] Free paclitaxel and doxorubicin in ethanol were used as positive controls. The ED50 values of hydrotropic micelles are much lower than PLA-PEG and PPA-PEG micelles.

MDA231 = test: Antitumor cytotoxicity (ED50), MDA231; type: cell-based; details: MDA231 tumor cell line
Method: as §1

MCF-7 = test: Antitumor cytotoxicity (ED50), MCF-7; type: cell-based; details: MCF-7 tumor cell line
Method: as §1

SKOV-3 = test: Antitumor cytotoxicity (ED50), SKOV-3; type: cell-based; details: SKOV-3 tumor cell line
Method: as §1

[2] = 50:50 mixture of Cremophore EL and dehydrated ethanol, diluted in isotonic saline; cited from earlier work

Row | Structure (SMILES) | hydrotropic property for paclitaxel (ability to increase aqueous paclitaxel solubility) ([1]; hydrotrope screening, in words) | ED50 HT-29 (HT-29) | ED50 MDA231 (MDA231) | ED50 MCF-7 (MCF-7) | ED50 SKOV-3 (SKOV-3) | increase in aqueous solubility over the intrinsic solubility [1] | paclitaxel solubility in formulation [2]
1 | O=C([O-])c1ccccc1O.[Na+] [sodium salicylate, Sodium salicylate] | excellent hydrotropes for paclitaxel | – | – | – | – | – | –
2 | COc1cccc2c1C(=O)c1c(O)c3c(c(O)c1C2=O)C[C@@](O)(C(=O)CO)C[C@@H]3O[C@H]1C[C@H](N)[C@H](O)[C@H](C)O1 [Doxorubicin] | – | 0.044 µg/mL (≈ 0.081 µM) | 0.050 µg/mL (≈ 0.092 µM) | 0.773 µg/mL (≈ 1.42 µM) | 0.611 µg/mL (≈ 1.12 µM) | – | –
3 | CC(=O)O[C@H]1C(=O)[C@@]2(C)[C@H]([C@H](OC(=O)c3ccccc3)[C@]3(O)C[C@H](OC(=O)[C@H](O)[C@@H](NC(=O)c4ccccc4)c4ccccc4)C(C)=C1C3(C)C)[C@]1(OC(C)=O)CO[C@@H]1C[C@@H]2O [Paclitaxel, paclitaxel] | – | 0.003 µg/mL (≈ 0.00351 µM) | 0.033 µg/mL (≈ 0.0386 µM) | 0.043 µg/mL (≈ 0.0504 µM) | 0.006 µg/mL (≈ 0.00703 µM) | 5˜6 orders of magnitude | ≤ 1200 µg/mL

— patent US20050158271A1, “Pharmaceutical applications of hydrotropic polymer micelles” (priority 2000, published 2005)
